Converted amounts (≈) assume the structure as drawn.
Tested on: Plasmodium
Test: Antimalarial activity against Plasmodium
Type: functional
Details: not given

Row | Compound | IC50
1 | C/C(=N\NC(=S)NC(C)(C)C)c1nc2cc(Cl)ccc2[nH]1 | 3 ng/mL (≈ 9.26 nM)
2 | C/C(=N\NC(N)=S)c1nc2cc(Cl)ccc2[nH]1 | 3 ng/mL (≈ 11.2 nM)
3 | C/C(=N\NC(=S)Nc1ccc(Cl)cc1Cl)c1nc2cc(Cl)ccc2[nH]1 | 3 ng/mL (≈ 7.27 nM)
4 | C/C(=N\NC(=S)NC1CCCCC1)c1nc2cc(Cl)ccc2[nH]1 | 3 ng/mL (≈ 8.57 nM)
5 | C/C(=N\NC(=S)NC(=O)c1ccccc1)c1nc2cc(Cl)ccc2[nH]1 | 3 ng/mL (≈ 8.07 nM)
6 | CCNC(=S)N/N=C(\C)c1nc2cc(Cl)ccc2[nH]1 | 3 ng/mL (≈ 10.1 nM)
7 | C/C(=N\NC(=S)Nc1ccccc1)c1nc2cc(Cl)ccc2[nH]1 | 3 ng/mL (≈ 8.72 nM)
8 | C/C(=N\NC(=S)Nc1ccc([N+](=O)[O-])cc1)c1nc2cc(Cl)ccc2[nH]1 | 3 ng/mL (≈ 7.72 nM)
9 | C/C(=N\NC(=S)Nc1ccc(C)cc1)c1nc2cc(Cl)ccc2[nH]1 | 3 ng/mL (≈ 8.38 nM)
10 | C/C(=N\NC(=S)Nc1ccc(F)cc1)c1nc2cc(Cl)ccc2[nH]1 | 3 ng/mL (≈ 8.29 nM)
11 | C/C(=N\NC(=S)NC(C)C)c1nc2cc(Cl)ccc2[nH]1 | 3 ng/mL (≈ 9.68 nM)
12 | COc1ccc(NC(=S)N/N=C(\C)c2nc3cc(Cl)ccc3[nH]2)cc1 | 3 ng/mL (≈ 8.02 nM)
13 | C/C(=N\NC(=S)Nc1ccc(I)cc1)c1nc2cc(Cl)ccc2[nH]1 | 3 ng/mL (≈ 6.39 nM)
14 | C/C(=N\NC(=S)Nc1ccc(Cl)cc1)c1nc2cc(Cl)ccc2[nH]1 | 3 ng/mL (≈ 7.93 nM)
15 | CCCCNC(=S)N/N=C(\C)c1nc2cc(Cl)ccc2[nH]1 | 3 ng/mL (≈ 9.26 nM)
16 | COc1cccc(NC(=S)N/N=C(\C)c2nc3cc(Cl)ccc3[nH]2)c1 | 3 ng/mL (≈ 8.02 nM)
17 | COc1ccccc1NC(=S)N/N=C(\C)c1nc2cc(Cl)ccc2[nH]1 | 3 ng/mL (≈ 8.02 nM)

Tested on: Hemozoin
Test: Inhibition of beta-hematin formation at 5 to 100 mM incubated for 48 hrs
Details: dose 5-100 mM

Row | Compound | inhibition
18 | COc1ccc(NC(=O)c2ccc3[nH]c(-c4ccc([N+](=O)[O-])o4)nc3c2)c(OC)c1 | < 98%
19 | COc1cc(NC(=O)c2ccc3[nH]c(-c4ccc([N+](=O)[O-])s4)nc3c2)cc(OC)c1OC | < 98%
20 | COc1cccc(NC(=O)c2ccc3[nH]c(-c4ccc([N+](=O)[O-])s4)nc3c2)c1 | < 98%
21 | O=C(Nc1ccc(Cl)cc1)c1ccc2[nH]c(-c3ccc([N+](=O)[O-])s3)nc2c1 | < 98%
22 | Cc1cccc(NC(=O)c2ccc3[nH]c(-c4ccc([N+](=O)[O-])o4)nc3c2)c1 | < 98%
23 | Cc1ccc(NC(=O)c2ccc3[nH]c(-c4ccc([N+](=O)[O-])s4)nc3c2)c(C)c1 | < 98%
24 | O=C(Nc1ccc(C(F)(F)F)cc1)c1ccc2[nH]c(-c3ccc([N+](=O)[O-])s3)nc2c1 | < 98%
25 | O=C(Nc1ccc(C(F)(F)F)cc1)c1ccc2[nH]c(-c3ccc([N+](=O)[O-])o3)nc2c1 | < 98%
26 | O=C(Nc1ccccc1Cl)c1ccc2[nH]c(-c3ccc([N+](=O)[O-])s3)nc2c1 | < 98%
27 | Cc1ccccc1NC(=O)c1ccc2[nH]c(-c3ccc([N+](=O)[O-])s3)nc2c1 | < 98%
28 | Cc1cccc(NC(=O)c2ccc3[nH]c(-c4ccc([N+](=O)[O-])s4)nc3c2)c1 | < 98%
29 | Cc1ccc(NC(=O)c2ccc3[nH]c(-c4ccc([N+](=O)[O-])o4)nc3c2)cc1C | < 98%
30 | O=C(Nc1ccc(Cl)cc1)c1ccc2[nH]c(-c3ccc([N+](=O)[O-])o3)nc2c1 | < 98%
31 | Cc1ccc(C)c(NC(=O)c2ccc3[nH]c(-c4ccc([N+](=O)[O-])s4)nc3c2)c1 | < 98%
32 | COc1ccc(NC(=O)c2ccc3[nH]c(-c4ccc([N+](=O)[O-])s4)nc3c2)c(OC)c1 | < 98%
33 | O=C(Nc1ccccc1Cl)c1ccc2[nH]c(-c3ccc([N+](=O)[O-])o3)nc2c1 | < 98%
34 | O=C(Nc1ccc(Br)cc1)c1ccc2[nH]c(-c3ccc([N+](=O)[O-])o3)nc2c1 | < 98%
35 | COc1ccc(NC(=O)c2ccc3[nH]c(-c4ccc([N+](=O)[O-])s4)nc3c2)cc1Cl | < 98%
36 | Cc1ccc(C)c(NC(=O)c2ccc3[nH]c(-c4ccc([N+](=O)[O-])o4)nc3c2)c1 | < 98%
37 | Cc1cc(C)cc(NC(=O)c2ccc3[nH]c(-c4ccc([N+](=O)[O-])s4)nc3c2)c1 | < 98%
38 | Cc1ccccc1NC(=O)c1ccc2[nH]c(-c3ccc([N+](=O)[O-])o3)nc2c1 | < 98%
39 | O=C(Nc1ccc(Br)cc1)c1ccc2[nH]c(-c3ccc([N+](=O)[O-])s3)nc2c1 | < 98%
40 | COc1ccc(NC(=O)c2ccc3[nH]c(-c4ccc([N+](=O)[O-])o4)nc3c2)cc1Cl | < 98%
41 | Cc1ccc(NC(=O)c2ccc3[nH]c(-c4ccc([N+](=O)[O-])s4)nc3c2)cc1C | < 98%
42 | Cc1cc(C)cc(NC(=O)c2ccc3[nH]c(-c4ccc([N+](=O)[O-])o4)nc3c2)c1 | < 98%
43 | COc1cccc(NC(=O)c2ccc3[nH]c(-c4ccc([N+](=O)[O-])o4)nc3c2)c1 | < 98%
44 | COc1cc(NC(=O)c2ccc3[nH]c(-c4ccc([N+](=O)[O-])o4)nc3c2)cc(OC)c1OC | < 98%

Source: ChEMBL document CHEMBL4673175, “An epigrammatic status of the azole-based antimalarial drugs” (RSC Med Chem, 2020)
